Reference: patent US20110293511A1, “SPECIFIC BINDING PROTEINS AND USES THEREOF” (priority 2009, published 2011)

Test system: A431 xenografts
Assay: s.c. xenograft therapy study
Type: in vivo, nude mice
Conditions: preventative model; 0.1 mg mAb806; 400 μg AG1478
Method: Tumor cells (3×10^6) in […] of PBS were inoculated subcutaneously into both flanks of 4-6 week old female nude mice (Animal Research Centre, Western Australia, Australia). […] Treatment was continued for a total of 6 doses, 3 times per week for 2 weeks. In the established model, treatment was started when tumors had reached a mean volume of 65±6.42 mm^3 (U87MG.Δ2-7), 84±9.07 mm3 (U87MG), 73±7.5 mm^3 (U87MG.wtEGFR) or 201±19.09 mm^3 (A431 tumors). Tumor volume in mm^3 was determined using the formula (length×width)/2, where length was the longest axis and width the measurement at right angles to the length (Clark et al. (2000) Therapeutic efficacy of anti-Lewis (y) humanized 3S 193 radioimmunotherapy in a breast cancer model: enhanced activity when combined with Taxol chemotherapy. Clin. Cancer Res. 6, 3621-3628). Data was expressed as mean tumor volume±S.E. for each treatment group. Statistical analysis was performed at given time points using Student's t-test. […]
To establish xenografts, mice were injected subcutaneously into the right and left inguinal mammary line with 1×10^6 A431 adenocarcinoma cells or 1×10^6 U87MG.de2-7 glioma cells in 100 μl of PBS. Tumor volume (TV) was calculated by the formula [(length×width)/2] where length was the longest axis and width the measurement at right angles to length. […]

Structure (SMILES): COc1cc2ncnc(Nc3cccc(Cl)c3)c2cc1OC [AG1478, 4-(3-Chloroanilino)-6,7-dimethoxyquinazoline, reference compound]
- reduction of tumor volume: significant reduction of tumor volume
